Source: patent publication US9328112B2, “Tetracyclic CDK9 kinase inhibitors” (AbbVie Inc., priority 2014, dated 2016)
pIC50: −log10 of the molar value.

Key:
CDK9/Cyclin T1 = CDK9/Cyclin T1 (Homo sapiens (Human), UniProt P50750); experiment: CDK9 enzyme assay (LANCE ULight TR-FRET kinase assay); format: biochemical; settings: 1000 μM ATP, 100 nM ULight MBP, kinase reaction 1 hour
Method in brief: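 TR-FRET readout (ex 320 nm; em 615/665 nm) after 1 h detection with 0.5 nM europium anti-phospho-MBP antibody in 20 mM EDTA stop buffer. Preceding 1 h kinase step: CDK9/Cyclin T1, ULight-MBP substrate at 100 nM, ATP at 1000 μM, compound pre-diluted in DMSO then buffer.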

H929 cells = experiment: Cell viability assay (Cell TiterGlo); format: cell-based; settings: Homo sapiens, NCI-H929, 24 hours at 37° C., Cell TiterGlo luminescence
Protocol: The cell viability assay was performed using H929 cells. Cells were seeded in 96-well plates at 10,000 cells/well and, after overnight incubation, treated with compounds in a dose response of 3-fold dilutions from 10 μM to 0.005 μM ([…], 0.1% final DMSO concentration). After 24 hours at 37° C., cell viability was measured using Cell TiterGlo reagent (Promega) with a luminescence reader.

Chain of CDK9/Cyclin T1 (P50750 whole entry): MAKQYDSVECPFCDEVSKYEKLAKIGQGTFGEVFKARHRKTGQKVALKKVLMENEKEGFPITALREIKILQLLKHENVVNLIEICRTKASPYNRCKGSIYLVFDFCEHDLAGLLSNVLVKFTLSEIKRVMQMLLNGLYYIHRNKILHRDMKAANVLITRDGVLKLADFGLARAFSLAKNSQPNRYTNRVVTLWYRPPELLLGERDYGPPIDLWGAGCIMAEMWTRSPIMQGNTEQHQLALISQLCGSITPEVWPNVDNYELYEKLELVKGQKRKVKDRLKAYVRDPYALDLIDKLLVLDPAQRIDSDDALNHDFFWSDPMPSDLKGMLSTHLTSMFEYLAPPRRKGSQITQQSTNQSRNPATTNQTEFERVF
Chain of CDK9/Cyclin T1 (O60563 whole entry partner): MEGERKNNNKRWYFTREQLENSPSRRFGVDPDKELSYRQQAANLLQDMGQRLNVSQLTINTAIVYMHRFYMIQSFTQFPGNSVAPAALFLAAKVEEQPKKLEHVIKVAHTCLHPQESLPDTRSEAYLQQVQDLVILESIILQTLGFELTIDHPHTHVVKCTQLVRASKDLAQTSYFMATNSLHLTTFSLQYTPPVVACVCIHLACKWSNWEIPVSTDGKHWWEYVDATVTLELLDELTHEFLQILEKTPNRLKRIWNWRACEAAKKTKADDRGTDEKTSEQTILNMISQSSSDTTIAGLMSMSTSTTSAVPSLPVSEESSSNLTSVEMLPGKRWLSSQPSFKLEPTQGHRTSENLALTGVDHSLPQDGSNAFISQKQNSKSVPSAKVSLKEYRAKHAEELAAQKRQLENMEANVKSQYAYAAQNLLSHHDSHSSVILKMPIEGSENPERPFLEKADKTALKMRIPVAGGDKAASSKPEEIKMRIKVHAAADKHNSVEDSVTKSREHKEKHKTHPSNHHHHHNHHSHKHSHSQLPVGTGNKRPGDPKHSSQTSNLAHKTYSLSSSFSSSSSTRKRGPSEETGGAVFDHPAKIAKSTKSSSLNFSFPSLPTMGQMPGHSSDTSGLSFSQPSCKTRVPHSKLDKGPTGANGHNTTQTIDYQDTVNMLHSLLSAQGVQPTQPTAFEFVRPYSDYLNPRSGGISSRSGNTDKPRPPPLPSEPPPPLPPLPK

| Structure (SMILES) | pIC50 (CDK9/Cyclin T1) | pIC50 (H929 cells) |
| --- | --- | --- |
| CN1Cc2c(C3=CCN([C@H]4CC[C@H](CC(=O)O)CC4)CC3)[nH]c3nccc(c23)-c2cc(F)c(F)cc21 [Example 146, {trans-4-[4-(9,10-difluoro-7-methyl-6,7-dihydro-4H-3,4,7-triazadibenzo[cd,f]azulen-5-yl)-3,6-dihydropyridin-1(2H)-yl]cyclohexyl}acetic acid] | 7.09 | 7.49 |
| CN1Cc2c(C3=CCN(CC(=O)N4CCC[C@H]4CO)CC3)[nH]c3nccc(c23)-c2cc(F)c(F)cc21 [Example 147, 2-[4-(9,10-difluoro-7-methyl-6,7-dihydro-4H-3,4,7-triazadibenzo[cd,f]azulen-5-yl)-3,6-dihydropyridin-1(2H)-yl]-1-[(2S)-2-(hydroxymethyl)pyrrolidin-1-yl]ethanone] | 7.35 | 8.22 |
| CN1Cc2c(C3=CCN(CC(=O)N(C)C4CC(O)C4)CC3)[nH]c3nccc(c23)-c2cc(F)c(F)cc21 (stereo not shown) [Example 148, 2-[4-(9,10-difluoro-7-methyl-6,7-dihydro-4H-3,4,7-triazadibenzo[cd,f]azulen-5-yl)-3,6-dihydropyridin-1(2H)-yl]-N-(3-hydroxycyclobutyl)-N-methylacetamide] | 7.28 | 7.60 |
| CN(C)C(=O)CN1CC=C(c2[nH]c3nccc4c3c2CN(C)c2ncccc2-4)CC1 [Example 149, N,N-dimethyl-2-[4-(7-methyl-6,7-dihydro-4H-3,4,7,8-tetraazadibenzo[cd,f]azulen-5-yl)-3,6-dihydropyridin-1(2H)-yl]acetamide] | 6.96 | 6.80 |
| CN1Cc2c(C3=CCN([C@H]4CC[C@H](C(=O)O)CC4)CC3)[nH]c3nccc(c23)-c2cc(F)c(F)cc21 [Example 150, trans-4-[4-(9,10-difluoro-7-methyl-6,7-dihydro-4H-3,4,7-triazadibenzo[cd,f]azulen-5-yl)-3,6-dihydropyridin-1(2H)-yl]cyclohexanecarboxylic acid] | 7.24 | 7.55 |
| CN1Cc2c(C3=C[C@@H]4COC(=O)N4CC3)[nH]c3nccc(c23)-c2cc(F)ccc21 [Example 151, (8aR)-7-(10-fluoro-7-methyl-6,7-dihydro-4H-3,4,7-triazadibenzo[cd,f]azulen-5-yl)-1,5,6,8a-tetrahydro[1,3]oxazolo[3,4-a]pyridin-3-one] | 7.43 | 6.72 |
| CN1Cc2c(C3=C[C@H]4COC(=O)N4CC3)[nH]c3nccc(c23)-c2cc(F)ccc21 [Example 152, (8aS)-7-(10-fluoro-7-methyl-6,7-dihydro-4H-3,4,7-triazadibenzo[cd,f]azulen-5-yl)-1,5,6,8a-tetrahydro[1,3]oxazolo[3,4-a]pyridin-3-one] | 7.39 | 6.18 |
| CN1Cc2c(C3=CCN4C(=O)OC[C@H]4C3)[nH]c3nccc(c23)-c2cc(F)ccc21 [Example 153, (8aR)-7-(10-fluoro-7-methyl-6,7-dihydro-4H-3,4,7-triazadibenzo[cd,f]azulen-5-yl)-1,5,8,8a-tetrahydro[1,3]oxazolo[3,4-a]pyridin-3-one] | 7.18 | 6.22 |
| CN1Cc2c(C3=C[C@H](CO)NCC3)[nH]c3nccc(c23)-c2cc(F)ccc21 [Example 154, [(2R)-4-(10-fluoro-7-methyl-6,7-dihydro-4H-3,4,7-triazadibenzo[cd,f]azulen-5-yl)-1,2,5,6-tetrahydropyridin-2-yl]methanol] | 7.55 | 7.25 |
| CN1Cc2c(C3=C[C@@H](CO)NCC3)[nH]c3nccc(c23)-c2cc(F)ccc21 [Example 155, [(2S)-4-(10-fluoro-7-methyl-6,7-dihydro-4H-3,4,7-triazadibenzo[cd,f]azulen-5-yl)-1,2,5,6-tetrahydropyridin-2-yl]methanol] | 7.39 | 7.41 |
| CN1Cc2c(C3=CCN[C@@H](CO)C3)[nH]c3nccc(c23)-c2cc(F)ccc21 [Example 156, [(2R)-4-(10-fluoro-7-methyl-6,7-dihydro-4H-3,4,7-triazadibenzo[cd,f]azulen-5-yl)-1,2,3,6-tetrahydropyridin-2-yl]methanol] | 7.52 | 7.66 |
| CN(CCO)C(=O)CN1CC=C(c2[nH]c3nccc4c3c2CN(C)c2cc(F)c(F)cc2-4)CC1 [Example 157, 2-[4-(9,10-difluoro-7-methyl-6,7-dihydro-4H-3,4,7-triazadibenzo[cd,f]azulen-5-yl)-3,6-dihydropyridin-1(2H)-yl]-N-(2-hydroxyethyl)-N-methylacetamide] | 7.34 | 8.00 |
| CN1Cc2c(C3=CCNCC3)[nH]c3nccc(c23)-c2ccccc21 [Example 158, 7-methyl-5-(1,2,3,6-tetrahydropyridin-4-yl)-6,7-dihydro-4H-3,4,7-triazadibenzo[cd,f]azulene] | 7.02 | 7.70 |
| CN1Cc2c(C3=CCNCC3)[nH]c3ncc(F)c(c23)-c2ccccc21 [Example 159, 1-fluoro-7-methyl-5-(1,2,3,6-tetrahydropyridin-4-yl)-6,7-dihydro-4H-3,4,7-triazadibenzo[cd,f]azulene] | 7.47 | 8.10 |
| CN1Cc2c(C3=CCN(S(C)(=O)=O)CC3)[nH]c3nccc(c23)-c2ccccc21 [Example 160, 7-methyl-5-[1-(methylsulfonyl)-1,2,3,6-tetrahydropyridin-4-yl]-6,7-dihydro-4H-3,4,7-triazadibenzo[cd,f]azulene] | 7.07 | 7.03 |
| CN1Cc2c(C3=CCN(S(C)(=O)=O)CC3)[nH]c3ncc(F)c(c23)-c2ccccc21 [Example 161, 1-fluoro-7-methyl-5-[1-(methylsulfonyl)-1,2,3,6-tetrahydropyridin-4-yl]-6,7-dihydro-4H-3,4,7-triazadibenzo[cd,f]azulene] | 7.40 | 7.19 |
| CN(C)C(=O)CN1CC=C(c2[nH]c3nccc4c3c2CN(C)c2ccccc2-4)CC1 [Example 162, N,N-dimethyl-2-[4-(7-methyl-6,7-dihydro-4H-3,4,7-triazadibenzo[cd,f]azulen-5-yl)-3,6-dihydropyridin-1(2H)-yl]acetamide] | 6.94 | 7.68 |
| CN(C)C(=O)CN1CC=C(c2[nH]c3ncc(F)c4c3c2CN(C)c2ccccc2-4)CC1 [Example 163, 2-[4-(1-fluoro-7-methyl-6,7-dihydro-4H-3,4,7-triazadibenzo[cd,f]azulen-5-yl)-3,6-dihydropyridin-1(2H)-yl]-N,N-dimethylacetamide] | 7.25 | 8.15 |
| OCC(O)CN1CC=C(c2[nH]c3nccc4c3c2COc2ccc(F)cc2-4)CC1 (stereo not shown) [Example 164, 3-[4-(10-fluoro-4,6-dihydro-7-oxa-3,4-diazadibenzo[cd,f]azulen-5-yl)-3,6-dihydropyridin-1(2H)-yl]propane-1,2-diol] | 6.89 | 6.57 |
| O=C(O)CC1CCC(N2CC=C(c3[nH]c4nccc5c4c3COc3ccc(F)cc3-5)CC2)CC1 (stereo not shown) [Example 165, {4-[4-(10-fluoro-4,6-dihydro-7-oxa-3,4-diazadibenzo[cd,f]azulen-5-yl)-3,6-dihydropyridin-1(2H)-yl]cyclohexyl}acetic acid] | 6.41 | 6.01 |
| CN1Cc2c(C3=CCN([C@H]4CC[C@H](C(=O)O)CC4)CC3)[nH]c3ncc(F)c(c23)-c2cc(F)ccc21 [Example 166, trans-4-[4-(1,10-difluoro-7-methyl-6,7-dihydro-4H-3,4,7-triazadibenzo[cd,f]azulen-5-yl)-3,6-dihydropyridin-1(2H)-yl]cyclohexanecarboxylic acid] | 7.12 | 8.10 |
| CN1Cc2c(C3=CCN([C@H]4CC[C@H](CC(=O)O)CC4)CC3)[nH]c3ncc(F)c(c23)-c2cc(F)ccc21 [Example 167, {trans-4-[4-(1,10-difluoro-7-methyl-6,7-dihydro-4H-3,4,7-triazadibenzo[cd,f]azulen-5-yl)-3,6-dihydropyridin-1(2H)-yl]cyclohexyl}acetic acid] | 7.17 | 8.00 |
| CC[C@H]1c2c(C3=CCN(CC(=O)N(C)C)CC3)[nH]c3nccc(c23)-c2cc(F)ccc2N1C [Example 168, 2-{4-[(6S)-6-ethyl-10-fluoro-7-methyl-6,7-dihydro-4H-3,4,7-triazadibenzo[cd,f]azulen-5-yl]-3,6-dihydropyridin-1(2H)-yl}-N,N-dimethylacetamide] | 7.22 | 8.10 |
| CN1Cc2c(C3=CCN(C4CCC(=CC#N)CC4)CC3)[nH]c3nccc(c23)-c2cc(F)ccc21 (stereo not shown) [Example 173, {4-[4-(10-fluoro-7-methyl-6,7-dihydro-4H-3,4,7-triazadibenzo[cd,f]azulen-5-yl)-3,6-dihydropyridin-1(2H)-yl]cyclohexylidene}acetonitrile] | 7.35 | 7.17 |
| COC(=O)C(C)=C1CCC(N2CC=C(c3[nH]c4nccc5c4c3CN(C)c3ccc(F)cc3-5)CC2)CC1 (stereo not shown) [Example 174, methyl 2-{4-[4-(10-fluoro-7-methyl-6,7-dihydro-4H-3,4,7-triazadibenzo[cd,f]azulen-5-yl)-3,6-dihydropyridin-1(2H)-yl]cyclohexylidene}propanoate] | 7.24 | 6.92 |
| CN1Cc2c(C3=CCN(C4CCC(=CC(=O)OC(C)(C)C)CC4)CC3)[nH]c3nccc(c23)-c2cc(F)ccc21 (stereo not shown) [Example 175, tert-butyl{4-[4-(10-fluoro-7-methyl-6,7-dihydro-4H-3,4,7-triazadibenzo[cd,f]azulen-5-yl)-3,6-dihydropyridin-1(2H)-yl]cyclohexylidene}acetate] | 6.92 | 6.31 |
